# Data published in the supplement of paper PMC11208160.
# Test: recombinant UMI read abundance after kanamycin selection (control-corrected) (log10(CPM+1)); higher = more efficient recombination; extreme values may be limits of the assay; sequences stand for … in AGTGCAGAGAAAATCGGCCAGTTTTCTCTGCCTGCAGTCCGCATGCCGTGGGACCCCTTGGGTTCTAACCTGTTGCCTAGATTTATGCAGCGGACTGCCTTTCTCCCAAAGTGATAAACCGG…AGGTTGGTTTCACT; site = the 11-nt donor
# Outline: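 Counts of recombinant UMIs were reported as log10(CPM+1). Before that, they were converted to CPM, averaged over replicates and scaled using control-derived factors. They came from PCR across the donor–target junction after Escherichia coli carrying the pair library and target plasmid was plated on IPTG (0.07 mM) plus kanamycin, or unselected, in two replicates each.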
# 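Note: IS621 bridge recombinase in Escherichia coli cells against a fixed T5 target plasmid.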
row,Sequence,recombinant UMI read abundance (log10)
1,ATTGAGACATGGACCGGTTTTCCCGGTAATCCGTATTTGGT (site ATTGTGACTAC),0.471
2,ATTGAGACATGGACCGGTTTTCCCGGTAATCCGTATTTGGT (site ATTTAGACTAC),0.353
3,ATTGAGACATGGACCGGTTTTCCCGGTAATCCGTATTTGGT (site CTTGAGACTAC),0.935
4,ATTGAGACATGGACCGGTTTTCCCGGTAATCCGTATTTGGT (site GTTGAGACTAC),0.235
5,ATTGAGACATGGACCGGTTTTCCCGGTAATCCGTATTTGGT (site TTTGAGACTAC),0.435
6,ATTGATACATGGACCGGTTTTCCCGGTAATCCGTATTTGGT (site ATTGAAACTAC),0.445
7,ATTGATACATGGACCGGTTTTCCCGGTAATCCGTATTTGGT (site ATTGACACTAC),0.179
8,ATTGATACATGGACCGGTTTTCCCGGTAATCCGTATTTGGT (site ATTGAGACTAC),0.00596
9,ATTGATACATGGACCGGTTTTCCCGGTAATCCGTATTTGGT (site ATTGATACTAC),1.33
10,ATTGCAACATGGACCGGTTTTCCCGGTAATCCGTATTTGGG (site ATTGCAACTCC),0.0185
11,ATTGCCCCATGGACCGGTTTTCCCGGTAATCCGTATTTGTC (site ATTGCCCCTGA),0
12,ATTGCGGCATGGACCGGTTTTCCCGGTAATCCGTATTTGCT (site ATTGCGGCTAG),1.27
13,ATTGCGGCATGGACCGGTTTTCCCGGTAATCCGTATTTGCT (site CTTGCGGCTAG),0.161
14,ATTGCGGCATGGACCGGTTTTCCCGGTAATCCGTATTTGCT (site GTTGCGGCTAG),0.0081
15,ATTGCGGCATGGACCGGTTTTCCCGGTAATCCGTATTTGCT (site TTTGCGGCTAG),0.371
16,ATTGCGGCATGGACCGGTTTTCCCGGTAATCCGTATTTGGG (site ATTGCGGCTCC),0.0219
17,ATTGGTACATGGACCGGTTTTCCCGGTAATCCGTATTTGCG (site ATTGGTACTCG),1.35
18,ATTGTGACATGGACCGGTTTTCCCGGTAATCCGTATTTGGT (site ATTGAGACTAC),0.524
19,ATTGTGACATGGACCGGTTTTCCCGGTAATCCGTATTTGGT (site ATTGCGACTAC),0.0121

row,Sequence,recombinant UMI read abundance (log10)
1,ATTGTGACATGGACCGGTTTTCCCGGTAATCCGTATTTGGT (site ATTGGGACTAC),0.0143
2,ATTGTGACATGGACCGGTTTTCCCGGTAATCCGTATTTGGT (site ATTGTGACTAC),0.925
3,ATTGTTCCATGGACCGGTTTTCCCGGTAATCCGTATTTGGT (site ATTGTTCCTAC),0
4,ATTGTTCCATGGACCGGTTTTCCCGGTAATCCGTATTTGGT (site CTTGTTCCTAC),0
5,ATTGTTCCATGGACCGGTTTTCCCGGTAATCCGTATTTGGT (site GTTGTTCCTAC),0.00837
6,ATTGTTCCATGGACCGGTTTTCCCGGTAATCCGTATTTGGT (site TTTGTTCCTAC),0.331
7,ATTTACACATGGACCGGTTTTCCCGGTAATCCGTATTTGTT (site ATTTACACTAA),0.967
8,ATTTATGCATGGACCGGTTTTCCCGGTAATCCGTATTTGGA (site AATTATGCTTC),0.379
9,ATTTATGCATGGACCGGTTTTCCCGGTAATCCGTATTTGGA (site ACTTATGCTTC),1.06
10,ATTTATGCATGGACCGGTTTTCCCGGTAATCCGTATTTGGA (site AGTTATGCTTC),0.744
11,ATTTATGCATGGACCGGTTTTCCCGGTAATCCGTATTTGGA (site ATTTATGCTTC),0.0921
12,CAAAACACATGGACCGGTTTTCCCGGTAATCCGTATTTGCC (site CAAAACACTGG),0
13,CAAACATCATGGACCGGTTTTCCCGGTAATCCGTATTTGTA (site CAAACATCTTA),2.53
14,CAAATCACATGGACCGGTTTTCCCGGTAATCCGTATTTGGG (site CAAATCACTCC),0.288
15,CAAATCACATGGACCGGTTTTCCCGGTAATCCGTATTTGGG (site CAACTCACTCC),0.02
16,CAAATCACATGGACCGGTTTTCCCGGTAATCCGTATTTGGG (site CAAGTCACTCC),0.00775
17,CAAATCACATGGACCGGTTTTCCCGGTAATCCGTATTTGGG (site CAATTCACTCC),0.0243
18,CAACATTCATGGACCGGTTTTCCCGGTAATCCGTATTTGCA (site CAACATTCTTG),2.5
19,CAACCCGCATGGACCGGTTTTCCCGGTAATCCGTATTTGTT (site CAACCCGCTAA),1.49

row,Sequence,recombinant UMI read abundance (log10)
1,CAACTCACATGGACCGGTTTTCCCGGTAATCCGTATTTGGG (site CAAATCACTCC),0.0187
2,CAACTCACATGGACCGGTTTTCCCGGTAATCCGTATTTGGG (site CAACTCACTCC),0.0233
3,CAACTCACATGGACCGGTTTTCCCGGTAATCCGTATTTGGG (site CAAGTCACTCC),0.00719
4,CAACTCACATGGACCGGTTTTCCCGGTAATCCGTATTTGGG (site CAATTCACTCC),0.013
5,CAACTGACATGGACCGGTTTTCCCGGTAATCCGTATTTGCT (site CAACTGACTAG),2.48
6,CAAGAGACATGGACCGGTTTTCCCGGTAATCCGTATTTGCG (site CAAGAGACTCG),3.11
7,CAAGAGCCATGGACCGGTTTTCCCGGTAATCCGTATTTGGG (site CAAGAGCCTCC),0.00368
8,CAAGCAGCATGGACCGGTTTTCCCGGTAATCCGTATTTGAT (site CAAGCAGCTAA),0.982
9,CAAGCAGCATGGACCGGTTTTCCCGGTAATCCGTATTTGAT (site CAAGCAGCTAC),0.271
10,CAAGCAGCATGGACCGGTTTTCCCGGTAATCCGTATTTGAT (site CAAGCAGCTAG),0.784
11,CAAGCAGCATGGACCGGTTTTCCCGGTAATCCGTATTTGAT (site CAAGCAGCTAT),2.44
12,CAAGCAGCATGGACCGGTTTTCCCGGTAATCCGTATTTGCG (site CAAGCAGCTAG),1.9
13,CAAGCAGCATGGACCGGTTTTCCCGGTAATCCGTATTTGCG (site CAAGCAGCTCG),1.81
14,CAAGCAGCATGGACCGGTTTTCCCGGTAATCCGTATTTGCG (site CAAGCAGCTGG),0
15,CAAGCAGCATGGACCGGTTTTCCCGGTAATCCGTATTTGCG (site CAAGCAGCTTG),1.68
16,CAAGCAGCATGGACCGGTTTTCCCGGTAATCCGTATTTGCT (site AAAGCAGCTAG),0
17,CAAGCAGCATGGACCGGTTTTCCCGGTAATCCGTATTTGCT (site CAAACAGCTAG),0.972
18,CAAGCAGCATGGACCGGTTTTCCCGGTAATCCGTATTTGCT (site CAACCAGCTAG),0
19,CAAGCAGCATGGACCGGTTTTCCCGGTAATCCGTATTTGCT (site CAAGAAGCTAG),0.892
